Source: US20190070170A1, “METHOD OF S[…]-1” (Macau University of Science and Technology, priority 2017, published 2019)

Assays:
NF-κB (mPGES-1 promoter) = target: T1, NF-κB (mPGES-1 promoter) (Rattus norvegicus, UniProt Q7TQN4); assay: ChIP assay: NF-κB DNA binding to mPGES-1 promoter in LPS-stimulated rat peritoneal macrophages; type: cell-based; settings: 640 μM SIN 1 h, 1 μg/ml LPS 30 min
T1 construct: Peritoneal macrophages of SD rats were isolated; endogenous in cells; host or cells: primary peritoneal macrophages of SD rats
T1 sequence (Q7TQN4 whole entry): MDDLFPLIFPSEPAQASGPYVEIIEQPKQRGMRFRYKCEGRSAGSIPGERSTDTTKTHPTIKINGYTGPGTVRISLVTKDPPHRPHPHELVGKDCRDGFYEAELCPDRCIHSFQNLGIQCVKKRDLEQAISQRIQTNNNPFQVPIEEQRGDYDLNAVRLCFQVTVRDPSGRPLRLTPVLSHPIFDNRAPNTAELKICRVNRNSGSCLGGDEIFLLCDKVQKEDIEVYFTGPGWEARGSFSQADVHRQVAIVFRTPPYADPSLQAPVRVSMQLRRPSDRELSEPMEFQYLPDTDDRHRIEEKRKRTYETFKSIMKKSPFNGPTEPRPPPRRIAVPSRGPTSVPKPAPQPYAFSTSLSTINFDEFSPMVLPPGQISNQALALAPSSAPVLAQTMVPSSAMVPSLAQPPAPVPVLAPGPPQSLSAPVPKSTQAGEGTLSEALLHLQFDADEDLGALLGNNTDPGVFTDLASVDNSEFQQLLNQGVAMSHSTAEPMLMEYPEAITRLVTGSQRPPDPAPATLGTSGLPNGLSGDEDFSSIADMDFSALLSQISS
Method: Rat peritoneal macrophages were pretreated with 640 μM SIN (1 h) and stimulated with 1 μg/ml LPS (30 min) before fixation at room temperature for 10 min with 1% formaldehyde. Fixation was terminated by adding glycine (to 0.125 M) with an additional incubation of 5 min, then the cells were washed twice with ice-cold PBS and harvested by scraping and centrifugation (1500 rpm for 10 min at 4° C.). Cell lysis was performed using ChIP kit from abcam (Cambridge, UK) according to the manufacturer's instructions. Briefly, cell pellets were resuspended in 1 ml Buffer B by pipetting up and down several times in a microcentrifuge tube and incubated at room temperature for 10 min. After centrifugation at 5000 rpm, the pellet was collected and resuspended in ice cold Buffer C and incubated on ice for 10 min, followed by centrifugation (5,000 rpm for 10 min at 4° C.). The pellet was mixed with 100 μl Buffer D containing protease inhibitors, incubated on ice for 10 min and sonicated for 30 cycles in a Bioruptor UCD-300 sonicator (power on high, 30 s on, 30 s off per cycle), yielding DNA fragments of 150-200 bps (the size of sonicated chromatin was checked through running 2% agarose gel). Beads were blocked overnight in PBS with 0.5% BSA and then added to the samples. […]

COX-2 = COX-2 protein expression in hind paws of CIA DBA/1 mice; type: in vivo; settings: SIN 100 mg/kg i.p.
Method: (§1) Female DBA/1 mice (8-9 weeks old) were purchased from Shanghai SiLaike (SLAC) Laboratory Animal Company (Shanghai, China) and fed with a chow diet and water at room temperature. Equal volume of complete Freuend's adjuvant (CFA) and Bovine Type II Collagen (CII) were mixed and emulsified using a homogenizer (13,000 rpm) on ice. On day 0, DBA/1 mice were immunized by injecting 50 μl of CII in CFA in the tail, approximately 2 cm from the base of the tail. […] The incidence of joint swelling in each group was recorded every two days since drug treatment. […]
(§2) Frozen paws were pulverized in liquid nitrogen using a stainless steel mortar and pestle, then re-suspended in 8 volumes of ice-cold PBS from Invitrogen (San Diego, Calif., USA) with 2.6 mM DTT from Promega (Madison, Wis., USA) and 2×Complete Protease Inhibitor mixture from Roche (Mannheim, Germany), and homogenized on ice bath using a tissue homogenizer from T25 digital, IKA (Stanfen, Germany) at 10,000 rpm/min for 5 min. […] The protein concentrations were measured using a Bio-Rad protein assay kit (Hercules, Calif., USA). […]
(§3) Whole-cell and nuclear proteins were obtained using RIPA lysis buffer (CST, Boston, Mass., USA) and Nuclear and Cytoplasmic Extraction Reagents kit from Thermo Scientific (Asheville, N.C., USA), respectively. […] The levels of protein expression were measured using Odyssey v3.0 software from Li-COR (Lincoln, Nebr., USA).

COX-1 = COX-1 protein expression in hind paws of CIA DBA/1 mice; type: in vivo; settings: SIN 100 mg/kg i.p.
Method: as §1, §2, §3

COC1=C[C@@H]2[C@@H]3Cc4ccc(OC)c(O)c4[C@]2(CCN3C)CC1=O [SIN, sinomenine]
DNA binding of NF-κB to the promoter of mPGES-1 (NF-κB (mPGES-1 promoter)): selectively inhibited | COX-2 expression in paw tissues (COX-2): did not produce observable changes | COX-1 expression in paw tissues (COX-1): did not produce observable changes
